Source: patent publication US12459951B2, “Compounds that interact with RAS superfamily proteins for treatment of cancers, inflammatory diseases, rasopathies, and fibrotic disease” (SHY Therapeutics, LLC, priority 2022, dated 2025)

Tests used:
Akt phosphorylation = test: Akt Phosphorylation Assay (western blot), Panc-1; assay type: cell-based, human; conditions: at 10 μM, * = activation
Procedure, shortened: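 Panc-1 (KRas G12D) cells were treated with compound at 10 μM final (0.3% DMSO) for 6 h at 37 °C, or with serial dilutions for IC50. Cells were either serum-starved overnight in 0.5% FBS and then stimulated with 1.5 ng/ml EGF for 15 min, or kept in 10% FBS without stimulation. Akt Ser473 phosphorylation in lysates was read by western blot.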

KRas Q61H mutant = test: Ras GTP Binding Domain Inhibition Assay (Ras Superfamily Assay); conditions: 20 μM compound; for KRas Q61H mutant + SOS: % inh.: with SOS; for KRas Q61H mutant: % inh.: without SOS
Procedure, shortened: (§1)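 His-tagged GTPases immobilised on nickel-coated plates, pre-incubated with compound (20 μM single point, or serial dilution for IC50) 3 h at room temperature, with or without 10-30 μg/mL Sos (residues 556-1049) in the final hour. Bound Cy3- or Cy5-GTP (100 nM, 45 min) measured by fluorescence after washing.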

KRas G12D mutant = test: as above; conditions: 20 μM compound; for KRas G12D mutant + SOS: % inh.: with SOS; for KRas G12D mutant: % inh.: without SOS
Procedure, shortened: as §1

Rho-A = target: T1, Rho-A (Homo sapiens, UniProt P61586); test: as above; conditions: read-out: Rho-A: % inh..
T1 construct: made in house
Procedure, shortened: as §1

T1 sequence (P61586 whole entry): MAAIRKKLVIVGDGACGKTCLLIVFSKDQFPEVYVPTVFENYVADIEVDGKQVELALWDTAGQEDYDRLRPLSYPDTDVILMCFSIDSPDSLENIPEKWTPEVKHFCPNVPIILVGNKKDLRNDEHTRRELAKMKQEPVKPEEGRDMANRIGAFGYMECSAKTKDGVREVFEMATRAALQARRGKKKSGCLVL

In the case of `COc1cccc(-c2cn3nc(-c4nccn4C)nc(N[C@H]4C[C@H](OC)C4)c3c2-c2ccccc2)c1F` [Compound 42, 6-(2-Fluoro-3-methoxyphenyl)-N-((1r,3r)-3-methoxycyclobutyl)-2-(1-methyl-1H-imidazol-2-yl)-5-phenylpyrrolo[2,1-f][1,2,4]triazin-4-amine], the “% inh of Akt phosphorylation in Panc-1” value (Akt phosphorylation) is reported as “D (85-100% inhibition)”, the “KRas Q61H mutant + SOS: % inh.” value (KRas Q61H mutant) is reported as “B (B = 26-49% inhibition)” and the “KRas Q61H mutant: % inh.” value (KRas Q61H mutant) is reported as “B (B = 26-49% inhibition)”. For the same compound, the “KRas G12D mutant + SOS: % inh.” value (KRas G12D mutant) was 0 (0 = 0% inhibition), the “KRas G12D mutant: % inh.” value (KRas G12D mutant) was 0 (0 = 0% inhibition) and the inhibition at 20 µM (Rho-A) was 1 to 25%.

`COCCO[C@H]1C[C@H](Nc2nc(-c3nccn3C)nn3cc(-c4cccc(OC)c4F)c(-c4ccccc4)c23)C1` [Compound 44, 6-(2-Fluoro-3-methoxyphenyl)-N-((1r,3r)-3-(2-methoxyethoxy)cyclobutyl)-2-(1-methyl-1H-imidazol-2-yl)-5-phenylpyrrolo[2,1-f][1,2,4]triazin-4-amine] was tested, and the “% inh of Akt phosphorylation in Panc-1” value (Akt phosphorylation) was “B (26-49% inhibition)”, the “KRas Q61H mutant + SOS: % inh.” value (KRas Q61H mutant) was “D (D = 76-100% inhibition)” and the “KRas Q61H mutant: % inh.” value (KRas Q61H mutant) was “D (D = 76-100% inhibition)”. For the same compound, the “KRas G12D mutant + SOS: % inh.” value (KRas G12D mutant) was “C (C = 50-75% inhibition)”, the “KRas G12D mutant: % inh.” value (KRas G12D mutant) was “B (B = 26-49% inhibition)” and the inhibition at 20 µM (Rho-A) was 1 to 25%.

In the case of `COc1cccc(-c2cn3nc(-c4nccn4C)nc(N[C@H]4C[C@H](OC)C4)c3c2-c2ccccn2)c1F` [Compound 45, 6-(2-Fluoro-3-methoxyphenyl)-N-((1r,3r)-3-methoxycyclobutyl)-2-(1-methyl-1H-imidazol-2-yl)-5-(pyridin-2-yl)pyrrolo[2,1-f][1,2,4]triazin-4-amine], the “% inh of Akt phosphorylation in Panc-1” value (Akt phosphorylation) is reported as 0 (0% inhibition), the “KRas Q61H mutant + SOS: % inh.” value (KRas Q61H mutant) is reported as “D (D = 76-100% inhibition)” and the “KRas Q61H mutant: % inh.” value (KRas Q61H mutant) is reported as “D (D = 76-100% inhibition)”. The “KRas G12D mutant + SOS: % inh.” value (KRas G12D mutant) was “A (A = 1-25% inhibition)”, the “KRas G12D mutant: % inh.” value (KRas G12D mutant) was “B (B = 26-49% inhibition)” and the inhibition at 20 µM (Rho-A) was 50 to 75%.

`COc1cccc(-c2cn3nc(-c4nccn4C)nc(N[C@H]4C[C@H](OC)C4)c3c2-c2ccn(C)n2)c1F` [Compound 47, 6-(2-Fluoro-3-methoxyphenyl)-N-((1r,3r)-3-methoxycyclobutyl)-2-(1-methyl-1H-imidazol-2-yl)-5-(1-methyl-1H-pyrazol-3-yl)pyrrolo[2,1-f][1,2,4]triazin-4-amine] was tested, and the “% inh of Akt phosphorylation in Panc-1” value (Akt phosphorylation) was “C* (46-84% activation)”, the “KRas Q61H mutant + SOS: % inh.” value (KRas Q61H mutant) was “A (A = 1-25% inhibition)” and the “KRas Q61H mutant: % inh.” value (KRas Q61H mutant) was “A (A = 1-25% inhibition)”. For the same compound, the “KRas G12D mutant + SOS: % inh.” value (KRas G12D mutant) was “A (A = 1-25% inhibition)”, the “KRas G12D mutant: % inh.” value (KRas G12D mutant) was “A (A = 1-25% inhibition)” and the inhibition at 20 µM (Rho-A) was 1 to 25%.

`COc1cc(Nc2nc(-c3nccn3C)nn3cc(-c4cccnc4)c(C)c23)ncn1` [Compound 48, N-(6-Methoxypyrimidin-4-yl)-5-methyl-2-(1-methyl-1H-imidazol-2-yl)-6-(pyridin-3-yl)pyrrolo[2,1-f][1,2,4]triazin-4-amine] was tested, and the “% inh of Akt phosphorylation in Panc-1” value (Akt phosphorylation) was “D* (85-100% activation)”, the “KRas Q61H mutant + SOS: % inh.” value (KRas Q61H mutant) was “D (D = 76-100% inhibition)” and the “KRas Q61H mutant: % inh.” value (KRas Q61H mutant) was “D (D = 76-100% inhibition)”. The “KRas G12D mutant + SOS: % inh.” value (KRas G12D mutant) was “C (C = 50-75% inhibition)”, the “KRas G12D mutant: % inh.” value (KRas G12D mutant) was “C (C = 50-75% inhibition)” and the inhibition at 20 µM (Rho-A) was 76 to 100%.

For `COc1cc(Nc2nc(-c3nccn3C)nn3cc(-c4ccncc4)c(C)c23)ncn1` [Compound 49, N-(6-Methoxypyrimidin-4-yl)-5-methyl-2-(1-methyl-1H-imidazol-2-yl)-6-(pyridin-4-yl)pyrrolo[2,1-f][1,2,4]triazin-4-amine], the “% inh of Akt phosphorylation in Panc-1” value (Akt phosphorylation) was “D* (85-100% activation)”, the “KRas Q61H mutant + SOS: % inh.” value (KRas Q61H mutant) was “D (D = 76-100% inhibition)” and the “KRas Q61H mutant: % inh.” value (KRas Q61H mutant) was “D (D = 76-100% inhibition)”. For the same compound, the “KRas G12D mutant + SOS: % inh.” value (KRas G12D mutant) was “B (B = 26-49% inhibition)”, the “KRas G12D mutant: % inh.” value (KRas G12D mutant) was “C (C = 50-75% inhibition)” and the inhibition at 20 µM (Rho-A) was 26 to 49%.
